Measurements taken from US20260258084A1, “New Peptides as Selective IL-23 Receptor Antagonists” (Sanofi, priority 2022, published 2026).
pIC50: −log10 of the molar value. ≈ marks a conversion by molar mass, not a printed value. Read-outs that look alike come from different tables or passages of the source. Starred links: 1 amine or outer side, 2 acyl side, 3 side chain; linkers in the order of their positions; H or OH if unused. Positions of bridges follow the written chain, without caps; N, C: chain ends. Non-standard residues stand in square brackets, D forms with d. Residues, ends and D or L forms follow the SMILES beside them. *: point of attachment. Trp(7-Me) = Cc1cccc2c(C[C@H](N)C(=O)O)c[nH]c12; X1 = O=C(CCCCN[*:3])N[C@@H](CS[*:2])C(=O)[*:1]; αMeLys(Me2) = CN(C)CCCC[C@](C)(N)C(=O)O; X2 = CN(C)[C@@H](CCCCN[*:1])C(=O)[*:2]; 2Nal = N[C@@H](Cc1ccc2ccccc2c1)C(=O)O; NMe5Ava = CN(CCCCC(=O)[*:2])[*:1]; 3Pal = N[C@@H](Cc1cccnc1)C(=O)O; αMeL = CC(C)C[C@](C)(N)C(=O)O; Me2NCH2CH2 = CN(C)CC*; Ava = NCCCCC(=O)O; Sar = CNCC(=O)O

Legend:
[1] = tested on: IL-23 induced STAT3 signaling in HEK-Blue™ IL-23 cells; assay: IL-23 induced STAT3 signaling in HEK-Blue IL-23 cells (SEAP reporter); type: cell-based; conditions: human IL23 0.25 ng/ml, read-out: pSTAT3
Description: HEK-Blue™ IL-23 cells (Invivogen) are designed for the detection of bioactive human (hIL-23) and murine IL-23 (mIL-23) by monitoring the activation of the STAT3 pathway. Binding of IL-23 to its receptor on the surface of HEK-Blue™ IL-23 cells triggers a signalling cascade leading to the activation of STAT3 and the subsequent production of secreted embryonic alkaline phosphatase (SEAP). This can be readily assessed using QUANTI-Blue™ Solution, a SEAP detection reagent.
HEK-Blue™ IL-23 cells were cultured as described by Invivogen.
On the first day of assay 10 μL of the HEK-Blue IL23 cell suspension (final concentration: 10,000 cells/well) and 10 μl of serially diluted peptides solutions were dispensed into a 384-well assay plate. After pre-incubation of the reaction mixtures at 37° C./5% CO2/95% humidity for 60 minutes, 10 μl of the human IL23 cytokine (final concentration: 0.25 ng/ml) was added to each well for the STAT3 signalling activation. The plate was incubated overnight at 37° C./5% CO2/95% humidity.
On the second day 20 μl per well of Quanti-Blue detection solution (prepared according to the manufacture instruction) was dispensed into a new 384-well plate and followed by the transfer of 5 μl supernatant of the overnight incubated cell/sample mixtures. After incubation of 45 min at room temperature signals were measured with PHERAstar (BMG) at OD 620-655 nm. Dose response data were fitted with XLfit.

Pancreatin = assay: Protease stability in simulated intestinal fluid (Pancreatin-SIF, FaSSIF); type: in vitro ADME; conditions: 1 μM peptide, 37° C.; for remaining at 1 h, 1 µM: 60 min, read-out: FaSSIF 60 (min), remaining percent of peptide; for remaining at 2 h, 1 µM: 120 min, read-out: FaSSIF 120 (min), remaining percent of peptide; for remaining at 4 h, 1 µM: 240 min, read-out: FaSSIF 240 (min), remaining percent of peptide
Experimental: (§1) Studies were carried out in simulated intestinal fluid (SIF) and simulated gastric fluid (SGF) to evaluate gastric stability of the peptide compounds disclosed herein.
Similarly, the term “Pancreatin-SIF” refers to a solution of simulated intestinal fluid containing pancreatin whereas “SIF-media” refers to a solution of simulated intestinal fluid without pancreatin.
Pancreatin-SIF was prepared by dissolving 1 mg Pancreatin (MP Biomedicals) in 10 mL SIF media concentrate (ProSense).
(§2) Peptides were first dissolved at 1 mM stock concentration in 0.01 HCl (+/−10% of DMSO) and were than diluted further with water to a stock concentration of 20 μM. Final peptide concentration in the incubation was 1 μM.
(§3) To 76 μL of the Pepsin-SGF buffer, 4 μL of the 20 µM peptide stock solution was added and incubated at 37° C. At each timepoint (0, 60, 120 and 240 minutes) the reaction was quenched with addition of 80 μL Ethanol (0.1% HCOOH). The samples were centrifuged for 20 minutes and an aliquot of the supernatant 100 μL were transferred to a LoBind-MTP plate and analyzed by LCMS/MS. The peak area response was calculated at each time point for each test compound. As internal reference, the peak area response of the same test compound at TO was calculated. The percent remaining at each timepoint was calculated based on the peak area response ratio of the test compound at TO. Time 0 was set to 100%, and all later timepoints were calculated relative to time 0.

Pepsin = tested on: T1, Pepsin; assay: Protease stability in simulated gastric fluid (Pepsin-SGF, FaSSGF); type: in vitro ADME; conditions: simulated gastric fluid with pepsin (Pepsin-SGF), 60 min, 1 μM peptide, 37° C., read-out: FaSSGF 60 (min), remaining percent of peptide
T1 construct: purchased Merck Millipore
Experimental: as §1
For clarification the term “Pepsin-SGF” refers to a solution of simulated gastric fluid containing pepsin whereas “SGF media” refers to a solution of simulated gastric fluid without pepsin. Pepsin-SGF was prepared by dissolving 320 mg Pepsin (Merck Millipore) in 100 mL SGF media concentrate (ProSense).
as §2
as §3, with “μM” for “µM”

[2] = Solubility testing of peptides at different pH; type: physicochemical; conditions: target concentration 1 mg/ml, 2 hours agitation
Experimental: Prior to the solubility measurement of a synthesized peptide batch, its purity was determined through UPLC/MS (methods B-G).
For solubility testing the target concentration was 1 mg pure compound/ml. Therefore, solutions from solid samples were prepared in a buffer system at a concentration of 1 mg/mL compound. The solid samples were obtained by drying down aliquots of a dimethyl sulfoxide stock solution using a Thermo Speedvac vacuum centrifuge. The dry down time was 3 hours. • Solubility buffer system A) 50 mM HCl pH 1.2 • Solubility buffer system B) 50 mM phosphate buffer pH 6.5 • Solubility buffer system C) 50 mM phosphate buffer pH 7.4 • Solubility buffer system D) 50 mM phosphate buffer pH 9.0
UPLC-UV (Method A) was performed after 2 hours of gentle agitation from the filtered (0.45 μm filter plates) solutions, which was obtained by 10 mins of centrifugation forced filtration at 1500 RCF (relative centrifugal acceleration).
The solubility was determined by the comparison of the UV peak area of 2 μL-injections of a buffered sample diluted 1:5 with a standard curve of a dimethyl sulfoxide reference sample of the diluted in dimethyl sulfoxide with known concentration. The different extinction coefficients were taken into account for the calculation.

[3] = Chemical stability assessment of peptides (relative purity loss); type: physicochemical; conditions: 24 hours at 37° C.; for Chemical stability (relative purity loss) Buffer pH 1.2: 50 mM HCl pH 1.2 + acetonitrile (1:1); for Chemical stability (relative purity loss) Buffer pH 6.5: 50 mM phosphate buffer pH 6.5 + acetonitrile (1:1); for Chemical stability (relative purity loss) Buffer pH 7.4: 50 mM phosphate buffer pH 7.4 + acetonitrile (1:1)
Experimental: Purity of a peptide batch was determined through UPLC/MS (Methods B-G) prior to chemical stability measurement. The target concentration was 1 mg/ml pure compound. Solutions from solid samples were prepared in the following buffer systems with a concentration of 1 mg/ml compound based on the previously determined % purity: • Solubility buffer system A) 50 mM HCl pH 1.2+Acetonitrile (1:1) • Solubility buffer system B) 50 mM phosphate buffer pH 6.5+Acetonitrile (1:1) • Solubility buffer system C) 50 mM phosphate buffer pH 7.4+Acetonitrile (1:1)
Prepared solutions were stored for 24 hours at 2° C. and 37° C. After this time course, the samples were centrifuged for 15 min at 2500 RCF to create a 1:5 dilution of the supernatant. Then 2 μl of the dilution were analysed with UHPLC-UV.
The chemical stability was rated through the relative loss of purity calculated by the equation:
[(purity after 0 hours at 37° C.)−(purity after 24 hours at 37° C.)]/(purity after 0 hours at 37° C.)]*100%
The purity is calculated as [(peak area peptide)/(total peak area)]*100%.

[4] = molecular target: T2, human interleukin-23 receptor (recombinant human IL-23R-Fc chimera) (Homo sapiens, UniProt Q5VWK5); assay: Human ELISA IL23/IL23R (assay for specific human IL23R antagonists); type: binding; conditions: Table 10; read-out: Human ELISA IL23/IL23R IC50
T2 construct: Fc (IgG Fc fusion)
Experimental: Antagonism of compounds for human interleukin-23 receptor antagonists, was determined by an ELISA assay.
A 384-well plate was coated with 50 μl/well of human IL23 at a final concentration of […] and incubated overnight at 4° C. The wells were washed 3 times with 80 μl wash buffer and blocked with 80 μl blocking buffer for 60 minutes at room temperature and washed again. 20 μl of serially diluted test peptides was added to each well and subsequently 20 μl of recombinant human IL-23R-Fc chimera at final concentration of 0.1 μg/ml. The plate was incubated for 60 minutes at room temperature. After the wells were washed, bound IL23R-Fc was detected with goat anti-hu-IgG1-HRP antibody. Signals were visualized with QuantaBlu Fluorogenic Peroxidase Substrate.

[5] = 50 mM HCl buffer, 50 mM HCl pH 1.2, read-out: Solubility Buffer pH 1.2
[6] = 50 mM phosphate buffer pH 6.5, read-out: Solubility Buffer pH 6.5
[7] = 50 mM phosphate buffer pH 7.4, read-out: Solubility Buffer pH 7.4
[8] = 50 mM phosphate buffer pH 9.0, read-out: Solubility Buffer pH 9.0

SMILES	pIC50 [1]	remaining at 1 h, 1 µM (Pancreatin) [%]	remaining at 2 h, 1 µM (Pancreatin) [%]	remaining at 4 h, 1 µM (Pancreatin) [%]	remaining at 1 h, 1 µM (Pepsin) [%]	solubility at 2 h [2, 5] [µg/mL]	solubility at 2 h [2, 6] [µg/mL]	solubility at 2 h [2, 7] [µg/mL]	solubility at 2 h [2, 8] [µg/mL]	Chemical stability (relative purity loss) Buffer pH 1.2 [3] [%]	Chemical stability (relative purity loss) Buffer pH 6.5 [3] [%]	Chemical stability (relative purity loss) Buffer pH 7.4 [3] [%]	pIC50 [4]
CC(=O)N[C@H]1CCCCNC(=O)[C@@H]2CSSC[C@H](NC(=O)[C@H](CCC(N)=O)NC(=O)[C@H](Cc3c[nH]c4ccccc34)NC1=O)C(=O)N[C@@H](Cc1ccc(OCCN(C)C)cc1)C(=O)N[C@@H](Cc1ccc3ccccc3c1)C(=O)N[C@@](C)(CC(C)C)C(=O)N[C@H](C(=O)N[C@@H](CC(N)=O)C(=O)N[C@@H](CC(N)=O)C(N)=O)CCC(=O)NCCCCC(=O)N2 [compound 28] (Ac-KWQCY(Me2NCH2CH2)[2Nal][αMeL]ENN-NH2; linker 1-4-8 via X1)	8.39	80	68	65	83								
CC(=O)NCCCC[C@@H]1NC(=O)[C@H](Cc2c[nH]c3c(C)cccc23)NC(=O)[C@@H](NC(C)=O)CCCCNC(=O)[C@@H]2CSSC[C@H](NC1=O)C(=O)N[C@@H](Cc1ccc(OCCN(C)C)cc1)C(=O)N[C@@H](Cc1ccc3ccccc3c1)C(=O)NC1(CCOCC1)C(=O)N[C@H](C(=O)N[C@@H](CC(N)=O)C(=O)N[C@@H](Cc1cccnc1)C(=O)N(C)CC(N)=O)CCCCN(C)CCCCN2C [compound 127]		99	101	97	100	≥ 1520	≥ 1130	≥ 1120	620 (≈ 333 µM)	6.0	9.0	11.0	9.28
CC(=O)NCCCC[C@@H]1NC(=O)[C@H](Cc2c[nH]c3c(C)cccc23)NC(=O)[C@@H](N(C)C)CCCCNC(=O)[C@@H]2CSSC[C@H](NC1=O)C(=O)N[C@@H](Cc1ccc(OCCN(C)C)cc1)C(=O)N[C@@H](Cc1ccc3ccccc3c1)C(=O)N[C@@](C)(CCCCN(C)C)C(=O)N[C@H](C(=O)N[C@@H](CC(N)=O)C(=O)N[C@@H](Cc1cccnc1)C(=O)N(C)CC(N)=O)CCC(=O)N(C)CCCCC(=O)N2 [compound 61] ([NMe5Ava]C[X2][Trp(7-Me)]K(Ac)CY(Me2NCH2CH2)[2Nal][αMeLys(Me2)]EN[3Pal][Sar]-NH2; disulfide 2-6; lactam N-10)	8.36	90	74	62	96								
CC(=O)NCCCC[C@@H]1NC(=O)[C@H](Cc2c[nH]c3c(C)cccc23)NC(=O)[C@H]([C@@H](C)O)NC(=O)[C@H](CC(N)=O)NC(=O)[C@@H]2CSSC[C@H](NC1=O)C(=O)N[C@@H](Cc1ccc(OCCN(C)C)cc1)C(=O)N[C@@H](Cc1ccc3ccccc3c1)C(=O)N[C@@](C)(CC(C)C)C(=O)N[C@H](C(=O)N[C@@H](CC(N)=O)C(=O)N[C@@H](Cc1cccnc1)C(=O)N(C)CC(N)=O)CCC(=O)NCCCCC(=O)N2 [compound 65] ([Ava]CNT[Trp(7-Me)]K(Ac)CY(Me2NCH2CH2)[2Nal][αMeL]EN[3Pal][Sar]-NH2; disulfide 2-7; lactam N-11)	9.64	96	96	92	86	≥ 980	≥ 910	≥ 960					
CC(=O)NCCCC[C@@H]1NC(=O)[C@H](Cc2c[nH]c3c(C)cccc23)NC(=O)[C@H]([C@@H](C)O)NC(=O)[C@H](CC(N)=O)NC(=O)[C@@H]2CSSC[C@H](NC1=O)C(=O)N[C@@H](Cc1ccc(OCCN(C)C)cc1)C(=O)N[C@H](Cc1ccc3ccccc3c1)C(=O)NC1(CCOCC1)C(=O)N[C@H](C(=O)N[C@@H](CC(N)=O)C(=O)N[C@@H](Cc1cccnc1)C(=O)N(C)CC(N)=O)CCC(=O)NCCCCC(=O)N2 [compound 35]	9.47	91	92	92	92	≥ 1070	≥ 1030	≥ 1060	≥ 1140	10.1	1.3	1.7	
